Where a SMILES comes first, the peptide text is derived from it. Bridges are numbered along the chain shown (N, C = ends).
What was measured:
[1] = tested on: E. coli ML-35p; assay: Two-stage radial diffusion assay; format: cell-based, Escherichia coli
Procedure: (§1) FIG. 4. Effect of salt on antibacterial activity of circular minidefensins. Human retrocyclin and monkey RTD-1 were tested against our standard lab stains: E. coli ML-35p, P. aeruginosa MR 3007, L. monocytogenes EGD, and S. aureus 930918. The bars show MIC values±SEM values that resulted from 3-6 radial diffusion assays per organism and assay condition.
(§2) The effects of NaCl on the antimicrobial activity of retrocyclin and RTD-1, from two-stage radial diffusion assays, are compared in FIG. 4.

[2] = tested on: HIV-1 strain IIIB; assay: HIV-1 IIIB infection of H9 cells, p24 antigen ELISA; format: cell-based; conditions: H9 cells, IIIB (X4), peptide 10-20 μg/ml
Procedure: FIG. 1. Circular minidefensins reduce HIV-1 infection of H9 cells. HIV-I strain IIIB (MOI=10^−2) was incubated with 2.5×10^5 H9 cells in the presence or absence of 20 μg/ml RTD-1, RTD-2 or RTD-3. p24 antigen release was monitored by ELISA on days 3, 6, and 9. Assay sensitivity=10 pg/ml.
Immortalized CD4^+ H9 cells, which are permissive for infection with this strain, were maintained in RPMI supplemented with 10% heat-inactivated fetal calf serum (FCS), 10 mM HEPES, 2 mM glutamine, 100 U of penicillin/ml, and 10 μg of streptomycin/ml (R10 media). Cells (2.5×10^5/100 μl) were incubated with virus (multiplicity of infection (MOI)=10^−2) in the presence or absence of 20 μg/ml RTD-1, RTD-2 or RTD-3 for 3 hrs at 37° C./5% CO2. The cells were washed in R10 media, seeded in 48-well tissue culture plates in 1 ml R10 media, and incubated at 37° C./5% CO2 for 9 days. Aliquots of cell supernatant were removed at the specified time points and analyzed by a sensitive ELISA (DuPont NEN) that quantitates p24 antigen of HIV-1. The three circular rhesus minidefensins were similarly active, inhibiting HIV-1 by 100-1000 fold by 9 days post-inoculation (note the logarithmic scale).
Either HIV-1-permissive H9 cells were used as targets, or primary CD4^+ lymphocytes from HIV-1-seronegative donors generated from freshly purified peripheral blood mononuclear cells (PBMC) stimulated with a CD3-CD8 bispecific monoclonal antibody. After approximately 7 days, when 98% of these cells co-expressed CD3 and CD4, they were infected with HIV-1 with or without retrocyclin or other test peptide. These cells were maintained in RPMI containing 10% FCS supplemented with 2 mM glutamine, 100 U of penicillin/ml, 10 μg of streptomycin/ml, and 50 U of interleukin 2/ml (R10-50 media).
Mature retrocyclin was prepared by a three-step process.

[3] = MTT cytotoxicity assay; format: cell-based, human; conditions: human, H9 cells
Procedure: FIG. 8. Cytotoxicity of antimicrobial peptides against H9 cells. Retrocyclin, RTD-1 and PG-1 (a porcine-derived peptide with anti-HIV-1 activity) were tested for cytotoxicity using an MTT assay for cell proliferation. Note that the EC50 of Retrocyclin and RTD-1 were >100 μg/ml, concentrations well above their antiviral concentration.
Retrocyclin is not cytotoxic. […] Retrocyclin was not hemolytic for human erythrocytes.

[4] = tested on: L. monocytogenes EGD; assay: Two-stage radial diffusion assay; format: cell-based, Listeria monocytogenes
Procedure: as §1, §2

[5] = tested on: HIV-1 IIIB; assay: Activity of theta-defensins against HIV-1 IIIB (FIG. 21); format: cell-based
Description: (§3) FIG. 21A-21B. Activity of theta-defensins against HIV-1 BAL; and HIV-1 IIIB.
(§4) The data shown in FIGS. 21A and 21B illustrate the activity of these retrocyclin-related peptides against two different strains of HIV-1, BAL and IIIB. […] BAL and IIIB are widely studied, laboratory adapted strains of HIV.

[6] = tested on: HIV-1 BAL; assay: Activity of theta-defensins against HIV-1 BAL (FIG. 21); format: cell-based
Description: as §3, §4

[7] = tested on: HIV-1; conditions: cited from earlier work

CC[C@H](C)[C@@H]1NC(=O)[C@@H]2CSSC[C@H](NC(=O)[C@H](CCCNC(=N)N)NC(=O)[C@@H]3CSSC[C@H](NC1=O)C(=O)N[C@@H]([C@@H](C)O)C(=O)N[C@@H](CCCNC(=N)N)C(=O)NCC(=O)N[C@@H](Cc1ccccc1)C(=O)N3)C(=O)N[C@@H](CC(C)C)C(=O)N[C@H]1CSSC[C@H](NC(=O)[C@H](C(C)C)NC(=O)CNC(=O)[C@H](CCCNC(=N)N)NC(=O)[C@H](CCCNC(=N)N)NC1=O)C(=O)N[C@@H](CCCNC(=N)N)C(=O)N2 [RTD-1, reference compound] (cyclo(GFCRCLCRRGVCRCICTR); disulfide 3-16, 5-14, 7-12)
effect of salt on antimicrobial activity ([1]; hypersalinity (175 mM NaCl)): only modestly inhibitory | antimicrobial activity ([1]; physiological (100 mM) NaCl): strong activity | inhibition of HIV-1 replication (p24) [2]: protective to a lesser extent than retrocyclin | EC50 [3]: > 100 µg/mL | effect of salt on antimicrobial activity ([4]; hypersalinity (175 mM NaCl)): only modestly inhibitory | antimicrobial activity ([4]; physiological (100 mM) NaCl): strong activity

Orang-2: cyclic GVCRC ICGRG VCRCI CRR (SEQ ID NO:134) (cyclo(GVCRCICGRGVCRCICRR); disulfide (positions not given here); ring closure inferred; not fully specified (bridges))
potency against HIV-1 IIIB [5]: more potent than retrocyclins 1 and 2 and RC101 | potency against HIV-1 BAL [6]: more potent than retrocyclins 1 and 2 and RC101

indolicidin
concentration reproducibly virucidal against HIV-1 [7]: 333 µg/mL
